Assay results reported in article PMC6268314, “Diterpenoids from the Buds of Pinus banksiana Lamb” (Molecules, 2012).

System: DLD-1, human colorectal adenocarcinoma cell line
Experiment: Cytotoxicity assay (Hoechst DNA assay), DLD-1
Format: cell-based
Conditions: Homo sapiens, DLD-1; isolated compounds; concentration inhibiting 50% cell growth; 48 h; mean of three independent assays
Description: (§1) P. banksiana buds were extracted successively with hexanes, CH2Cl2 and MeOH. After solvent evaporation, each extract was investigated for in vitro cytotoxic and antibacterial activities. Cytotoxic activity evaluations were carried out on lung cancer (A549), colorectal cancer (DLD-1) and normal skin fibroblasts (WS1) human cell lines using the Hoechst assay. Antibacterial activity was evaluated against Escherichia coli and Staphylococcus aureus. […] Therefore, following studies were focused on the CH2Cl2 extract that was further separated over column chromatography on silica gel to afford eleven fractions (A–K). All fractions activities were tested against both cancer cell lines and bacterial strains. […] In a next step, fractions F, G, H and K were separated by a combination of chromatographic procedures to afford the three new compounds 1–3 together with 12 known compounds. The structures of the new compounds were determined as follows and the known products were identified by comparison of their spectroscopic data with values found in the literature.
(§2) Lung carcinoma (A549), colorectal adenocarcinoma (DLD-1) and normal skin fibroblast (WS1) human cell lines were obtained from the American Type Culture Collection (ATCC). All cell lines were cultured in minimum essential medium containing Earle’s salts and L-glutamine (Mediatech Cellgro, VA, USA), to which were added 10% fetal bovine serum (Hyclone), vitamins (1X), penicillin (100 I.U./mL) and streptomycin (100 µg/mL), essential amino acids (1X) and sodium pyruvate (1X) (Mediatech Cellgro, VA). Cells were kept at 37 °C in a humidified environment containing 5% CO2. Antibacterial activity was tested on Escherichia coli ATCC 25922 and Staphylococcus aureus ATCC 25923E.
(§3) Exponentially growing cells were plated on 96-well microplates (BD Falcon) at a density of 5 × 10^3 cells per well in 100 μL of culture medium (DMEM with 10% SVF) and were allowed to adhere for 24 h before treatment. Increasing concentrations of each compound in MeOH or DMSO were then added (100 μL per well) and cells were incubated for 48 h. The final concentration of MeOH or DMSO in the culture medium was maintained at 0.25% (v/v) to avoid solvent toxicity. Microplates were then emptied and stored at −80 °C for 24 h. In a next step, 100 μL of SDS (0.01%) were added and the microplates were incubated at room temperature during 3 h before being put back to the cold. After 24 h, cells were prepared for cellular DNA assay with 100 μL of Hoechst dye 33342. Measurements were performed on the same labsystems at 365 and 460 nm wavelengths. Survival percentage was defined as the fluorescene in experimental wells compared to the control wells after subtraction of the blank values. Etoposide was used as positive control. Each experiment was carried out two times in triplicata. IC50 results were expressed as averaged values and the corresponding standard deviations were computed.

Row | SMILES | IC50 [µM]
1 | CC(C)(O)c1ccc2c(c1)C(O)CC1C(C)(CO)CCCC21C (stereo not drawn) [Compound 2, 7β,15,18-trihydroxyabieta-8,11,13-triene] | > 100
2 | CC(C)(O)c1ccc2c(c1)[C@H](O)CC1[C@](C)(C=O)CCC[C@]21C (stereo partly drawn) [Compound 4, 7α,15-dihydroxyabieta-8,11,13-trien-18-al] | > 100
3 | CC(C)(O)c1ccc2c(c1)CC[C@H]1[C@](C)(C(=O)O)CCC[C@]21C [Compound 7, 15-hydroxydehydroabietic acid] | > 100
4 | CC(C)c1ccc2c(c1)[C@H](O)CC1[C@](C)(C(=O)O)CCC[C@]21C (stereo partly drawn) [Compound 10, 7α-hydroxydehydroabietic acid] | > 100
5 | CC(C)(O)c1ccc2c(c1)[C@@H](O)CC1[C@](C)(C(=O)O)CCC[C@]21C (stereo partly drawn) [Compound 6, 7β,15-dihydroxydehydroabietic acid] | > 100
6 | CC(C)c1ccc2c(c1)[C@H](O)CC1[C@](C)(O)CCC[C@]21C (stereo partly drawn) [Compound 8, 18-nor-abieta-8,11,13-triene-4,7α-diol] | 91 ± 9
7 | CC(C)c1ccc2c(c1)[C@@H](O)CC1[C@](C)(O)CCC[C@]21C (stereo partly drawn) [Compound 9, 18-nor-abieta-8,11,13-triene-4,7β-diol] | > 100
8 | CC(C)(O)c1ccc2c(c1)C(=O)CC1[C@](C)(C(=O)O)CCC[C@]21C (some centres unmarked) [Compound 15, 15-hydroxy-7-oxo-abieta-8,11,13-trien-18-oic acid] | > 100

System: Escherichia coli ATCC 25922
Experiment: Antibacterial microdilution assay (resazurin), E. coli
Format: cell-based
Conditions: ATCC25922, extracts and fractions, 6 h at 37 °C
Description: as §2
(§4) Antibacterial activity was evaluated using the microdilution method described by Banfi et al. with some modifications. Exponentially growing bacteria were plated in 96-well flat bottom microplates (BD Flacon) at a density of 5 × 10^3 gram-negative E. coli (ATCC 25922) or 40 × 10^3 gram-positive S. aureus (ATCC 25923) per well in 100 μL nutrient broth (Difco). The concentration of ethanol in the culture medium was maintained at 0.25% (v/v) to avoid solvent toxicity. Thereafter, 50 μL of 4% resazurin was added to each well and the microplates were incubated for 6 h at 37 °C. Fluorescence was measured after 6 h with an automated 96-well Fluoroskan Ascent Fl™ plate reader (Labsystems) using 530 and 590 nm excitation and emission wavelengths.

Row | IC50 [µg/mL] | SMILES
9 | 0.12 ± 0.02 | O=C(N[C@H](CO)[C@H](O)c1ccc([N+](=O)[O-])cc1)C(Cl)Cl [Chloramphenicol, reference compound]

Same assay, conditions: ATCC25922, isolated compounds, 6 h at 37 °C

Row | IC50 [µM] | SMILES
10 | 0.37 ± 0.06 | O=C(N[C@H](CO)[C@H](O)c1ccc([N+](=O)[O-])cc1)C(Cl)Cl [Chloramphenicol, reference compound]
11 | > 100 | CC(C)(O)c1ccc2c(c1)C(O)CC1C(C)(CO)CCCC21C (stereo not drawn) [Compound 2, 7β,15,18-trihydroxyabieta-8,11,13-triene]
12 | > 100 | CC(C)(O)c1ccc2c(c1)[C@H](O)CC1[C@](C)(C=O)CCC[C@]21C (stereo partly drawn) [Compound 4, 7α,15-dihydroxyabieta-8,11,13-trien-18-al]
13 | > 100 | CC(C)(O)c1ccc2c(c1)CC[C@H]1[C@](C)(C(=O)O)CCC[C@]21C [Compound 7, 15-hydroxydehydroabietic acid]
14 | > 100 | CC(C)c1ccc2c(c1)[C@H](O)CC1[C@](C)(C(=O)O)CCC[C@]21C (stereo partly drawn) [Compound 10, 7α-hydroxydehydroabietic acid]
15 | > 100 | CC(C)(O)c1ccc2c(c1)[C@@H](O)CC1[C@](C)(C(=O)O)CCC[C@]21C (stereo partly drawn) [Compound 6, 7β,15-dihydroxydehydroabietic acid]
16 | > 100 | CC(C)c1ccc2c(c1)[C@H](O)CC1[C@](C)(O)CCC[C@]21C (stereo partly drawn) [Compound 8, 18-nor-abieta-8,11,13-triene-4,7α-diol]
17 | > 100 | CC(C)c1ccc2c(c1)[C@@H](O)CC1[C@](C)(O)CCC[C@]21C (stereo partly drawn) [Compound 9, 18-nor-abieta-8,11,13-triene-4,7β-diol]
18 | > 100 | CC(C)(O)c1ccc2c(c1)C(=O)CC1[C@](C)(C(=O)O)CCC[C@]21C (some centres unmarked) [Compound 15, 15-hydroxy-7-oxo-abieta-8,11,13-trien-18-oic acid]

System: WS1, human normal skin fibroblasts
Experiment: Cytotoxicity assay (Hoechst DNA assay), WS1
Format: cell-based
Conditions: Skin fibroblast, isolated compounds, concentration inhibiting 50% cell growth, 48 h, mean of three independent assays
Description: as §1, §2
as §3, with “Each experiment was carried out two times in triplicata.” left out

Row | SMILES | IC50 [µM]
19 | CC(C)(O)c1ccc2c(c1)C(O)CC1C(C)(CO)CCCC21C (stereo not drawn) [Compound 2, 7β,15,18-trihydroxyabieta-8,11,13-triene] | > 100
20 | CC(C)(O)c1ccc2c(c1)[C@H](O)CC1[C@](C)(C=O)CCC[C@]21C (stereo partly drawn) [Compound 4, 7α,15-dihydroxyabieta-8,11,13-trien-18-al] | > 100
21 | CC(C)(O)c1ccc2c(c1)CC[C@H]1[C@](C)(C(=O)O)CCC[C@]21C [Compound 7, 15-hydroxydehydroabietic acid] | > 100
22 | CC(C)c1ccc2c(c1)[C@H](O)CC1[C@](C)(C(=O)O)CCC[C@]21C (stereo partly drawn) [Compound 10, 7α-hydroxydehydroabietic acid] | > 100
23 | CC(C)(O)c1ccc2c(c1)[C@@H](O)CC1[C@](C)(C(=O)O)CCC[C@]21C (stereo partly drawn) [Compound 6, 7β,15-dihydroxydehydroabietic acid] | > 100
24 | CC(C)c1ccc2c(c1)[C@H](O)CC1[C@](C)(O)CCC[C@]21C (stereo partly drawn) [Compound 8, 18-nor-abieta-8,11,13-triene-4,7α-diol] | > 100
25 | CC(C)c1ccc2c(c1)[C@@H](O)CC1[C@](C)(O)CCC[C@]21C (stereo partly drawn) [Compound 9, 18-nor-abieta-8,11,13-triene-4,7β-diol] | > 100
26 | CC(C)(O)c1ccc2c(c1)C(=O)CC1[C@](C)(C(=O)O)CCC[C@]21C (some centres unmarked) [Compound 15, 15-hydroxy-7-oxo-abieta-8,11,13-trien-18-oic acid] | > 100

System: Staphylococcus aureus ATCC 25923
Experiment: Antibacterial microdilution assay (resazurin), S. aureus
Format: cell-based
Conditions: ATCC25923, extracts and fractions, 6 h at 37 °C
Description: as §2, §4

Row | IC50 [µg/mL] | SMILES
27 | > 1.6 | O=C(N[C@H](CO)[C@H](O)c1ccc([N+](=O)[O-])cc1)C(Cl)Cl [Chloramphenicol, reference compound]

Same assay, conditions: ATCC25923, isolated compounds, 6 h at 37 °C

Row | IC50 [µM] | SMILES
28 | > 5 | O=C(N[C@H](CO)[C@H](O)c1ccc([N+](=O)[O-])cc1)C(Cl)Cl [Chloramphenicol, reference compound]
29 | > 100 | CC(C)(O)c1ccc2c(c1)C(O)CC1C(C)(CO)CCCC21C (stereo not drawn) [Compound 2, 7β,15,18-trihydroxyabieta-8,11,13-triene]
30 | > 100 | CC(C)(O)c1ccc2c(c1)[C@H](O)CC1[C@](C)(C=O)CCC[C@]21C (stereo partly drawn) [Compound 4, 7α,15-dihydroxyabieta-8,11,13-trien-18-al]
31 | > 100 | CC(C)(O)c1ccc2c(c1)CC[C@H]1[C@](C)(C(=O)O)CCC[C@]21C [Compound 7, 15-hydroxydehydroabietic acid]
32 | > 100 | CC(C)c1ccc2c(c1)[C@H](O)CC1[C@](C)(C(=O)O)CCC[C@]21C (stereo partly drawn) [Compound 10, 7α-hydroxydehydroabietic acid]
33 | > 100 | CC(C)(O)c1ccc2c(c1)[C@@H](O)CC1[C@](C)(C(=O)O)CCC[C@]21C (stereo partly drawn) [Compound 6, 7β,15-dihydroxydehydroabietic acid]
34 | > 100 | CC(C)c1ccc2c(c1)[C@H](O)CC1[C@](C)(O)CCC[C@]21C (stereo partly drawn) [Compound 8, 18-nor-abieta-8,11,13-triene-4,7α-diol]
35 | > 100 | CC(C)c1ccc2c(c1)[C@@H](O)CC1[C@](C)(O)CCC[C@]21C (stereo partly drawn) [Compound 9, 18-nor-abieta-8,11,13-triene-4,7β-diol]
36 | > 100 | CC(C)(O)c1ccc2c(c1)C(=O)CC1[C@](C)(C(=O)O)CCC[C@]21C (some centres unmarked) [Compound 15, 15-hydroxy-7-oxo-abieta-8,11,13-trien-18-oic acid]

System: A549, human lung carcinoma cell line
Experiment: Cytotoxicity assay (Hoechst DNA assay), A549
Format: cell-based
Conditions: Homo sapiens, A549; isolated compounds; concentration inhibiting 50% cell growth; 48 h; mean of three independent assays
Description: as §1, §2, §3

Row | SMILES | IC50 [µM]
37 | CC(C)(O)c1ccc2c(c1)C(O)CC1C(C)(CO)CCCC21C (stereo not drawn) [Compound 2, 7β,15,18-trihydroxyabieta-8,11,13-triene] | > 100
38 | CC(C)(O)c1ccc2c(c1)[C@H](O)CC1[C@](C)(C=O)CCC[C@]21C (stereo partly drawn) [Compound 4, 7α,15-dihydroxyabieta-8,11,13-trien-18-al] | > 100
39 | CC(C)(O)c1ccc2c(c1)CC[C@H]1[C@](C)(C(=O)O)CCC[C@]21C [Compound 7, 15-hydroxydehydroabietic acid] | 98 ± 2
40 | CC(C)c1ccc2c(c1)[C@H](O)CC1[C@](C)(C(=O)O)CCC[C@]21C (stereo partly drawn) [Compound 10, 7α-hydroxydehydroabietic acid] | > 100
41 | CC(C)(O)c1ccc2c(c1)[C@@H](O)CC1[C@](C)(C(=O)O)CCC[C@]21C (stereo partly drawn) [Compound 6, 7β,15-dihydroxydehydroabietic acid] | > 100
42 | CC(C)c1ccc2c(c1)[C@H](O)CC1[C@](C)(O)CCC[C@]21C (stereo partly drawn) [Compound 8, 18-nor-abieta-8,11,13-triene-4,7α-diol] | 63 ± 7
43 | CC(C)c1ccc2c(c1)[C@@H](O)CC1[C@](C)(O)CCC[C@]21C (stereo partly drawn) [Compound 9, 18-nor-abieta-8,11,13-triene-4,7β-diol] | > 100
44 | CC(C)(O)c1ccc2c(c1)C(=O)CC1[C@](C)(C(=O)O)CCC[C@]21C (some centres unmarked) [Compound 15, 15-hydroxy-7-oxo-abieta-8,11,13-trien-18-oic acid] | > 100
